Source: patent US5017565A, “Use of sulfated polysaccharides to inhibit pancreatic cholesterol esterase” (priority 1989, dated 1991)
Like-named read-outs stand apart in the source and are kept apart here.

Experiments:
Format in all cases: biochemical
[1] = target: human 100 kDa cholesterol esterase; test: Inhibition of triolein hydrolysis by cholesterol esterase; settings: table 3; triolein used instead of cholesterol oleate
Description: (§1) Alginic acid from Macrocystis pyrifera (kelp) was dissolved in water at a concentration of 1 mg/ml. This stock solution was used to prepare various polysaccharide concentrations down to 10^-5 mg/ml. Human pancreatic cholesterol esterase was purified as described by Bosner et al., Proc Nat'l. Acad. Sci., 85, 7438 (1988). To measure cholesterol esterase inhibition by alginic acid, 50 μl of cholesterol esterase (10 μg/ml). 75 μl of phosphatidylcholine vesicles containing cholesteryl ^14 C-oleate (1 mM 2,000 CPM/nmole). 25 μl of 100 mM taurocholate, 120 μl of 150 mM Tris. pH 7.5 and 30 μl of test alginic acid solution were incubated at 37° C. for fifteen minutes. The assay was quenched by placing the reaction vessels in a 4° C. ice bath and by adding 0.6 ml of 0.3 N NaOH and 3 ml of benzene/chloroform/methanol (1 0/1.2/0 5). The quenched reactions were vortexed for 30 seconds, centrifuged at 3,000 g for 15 minutes and 1 ml of the upper aqueous phase was added to 7 ml of Aquasol-2 (DuPont) with 0.025 ml of 6 N HCl. These mixtures were vortexed for one minute and counted for ^14 C-oleate The counts were compared to a sample which contained cholesterol esterase but no alginic acid to determine the percentage of inhibition.
(The same assay procedure was used as described in Part I, only triolein was used instead of cholesterol oleate.) As shown in the table below, the IC50 for inhibition of triolein hydrolysis is nearly the same as that for cholesteryl oleate hydrolysis.

[2] = target: Human pancreatic cholesterol esterase; test: Inhibition of cholesteryl 14C-oleate hydrolysis by cholesterol esterase; settings: for IC50 cholesterol esterase inhibition: 37° C., fifteen minutes, pH 7.5
Description: This stock solution was used to prepare various polysaccharide concentrations down to 10^-5 mg/ml. […] 75 μl of phosphatidylcholine vesicles containing cholesteryl ^14 C-oleate (1 mM 2,000 CPM/nmole). 25 μl of 100 mM taurocholate, 120 μl of 150 mM Tris. pH 7.5 and 30 μl of test alginic acid solution were incubated at 37° C. for fifteen minutes. The assay was quenched by placing the reaction vessels in a 4° C. ice bath and by adding 0.6 ml of 0.3 N NaOH and 3 ml of benzene/chloroform/methanol (1 0/1.2/0 5). The quenched reactions were vortexed for 30 seconds, centrifuged at 3,000 g for 15 minutes and 1 ml of the upper aqueous phase was added to 7 ml of Aquasol-2 (DuPont) with 0.025 ml of 6 N HCl. These mixtures were vortexed for one minute and counted for ^14 C-oleate The counts were compared to a sample which contained cholesterol esterase but no alginic acid to determine the percentage of inhibition.

cholesterol esterase = test: Cholesterol esterase inhibition by water extract of baked muffin (stability under baking conditions); settings: qualitative statement
Description: as §1
The sulfated polysaccharides described here retain their inhibitory activity for prolonged periods at elevated temperatures. […]

[3] = cholesteryl 14C-oleate substrate
[4] = cholesteryl 14C-oleate substrate, molar value assumes a molecular weight (alginic acid 240 kDa, pectin 20 kDa, chitin 300 kDa, cellulose sulfate 500 kDa), read-out: IC50 cholesterol esterase inhibition
[5] = table 3, cholesteryl oleate hydrolysis, read-out: IC50 (nM) Cholesteryl Oleate
[6] = table 2, summary of sulfated polysaccharides, read-out: IC50

Row | Substance | IC50 [1] [nM] | IC50 cholesterol esterase inhibition [2, 3] [µg/mL] | IC50 [2, 4] [nM] | Enhancement Factor ([2]; table 1, enhancement of inhibition relative to native alginic acid (fold)) | IC50 [2, 5] [nM] | Retention of inhibitory activity at elevated temperatures / stability under baking conditions (in words) (cholesterol esterase) | IC50 [2, 6] [nM] | Inhibition of cholesterol esterase (in words) ([2]; qualitative statement)
1 | Alginic acid [reference compound] | 42 | 4 | 20 | 1.0 | 20 |  |  | 
2 | Cellulose Sulfate | 0.06 |  | 0.02 |  | 0.02 | stable under baking conditions | 0.02 | 
3 | Dextran Sulfate |  |  | 0.02 |  | 0.02 |  | 0.02 | 

More lines, now with the values ahead:

Row | IC50 [1] [nM] | IC50 cholesterol esterase inhibition [2, 3] [µg/mL] | IC50 [2, 4] [nM] | Enhancement Factor ([2]; table 1, enhancement of inhibition relative to native alginic acid (fold)) | IC50 [2, 5] [nM] | Retention of inhibitory activity at elevated temperatures / stability under baking conditions (in words) (cholesterol esterase) | IC50 [2, 6] [nM] | Inhibition of cholesterol esterase (in words) ([2]; qualitative statement) | Substance
4 | 0.14 |  |  |  | 0.06 |  | 0.06 |  | Chitin Sulfate
5 | 0.16 | 0.015 | 0.03 |  | 0.03 |  | 0.03 |  | Chitosan Sulfate
6 |  |  |  |  |  |  |  | does not inhibit cholesterol esterase | pectin [reference compound]
